Measurements from patent publication US11660303B2, “2-phenylimidazo[4,5-b]pyridin-7-amine derivates useful as inhibitors of mammalian tyrosine kinase ROR1 activity” (KANCERA AB, priority 2016, dated 2023).

Key:
PBMC from CLL patients = assay: CellTiter-Blue Cell Viability Assay, PBMC from CLL patients; type: cell-based; details: Homo sapiens, cell toxicity, culture 24, 48 and 72 h (time of the values not stated)
Method: (§1) The CellTiter-Blue® Cell Viability Assay provides a homogeneous, fluorometric method for estimating the number of viable cells present in multi-well plates. The assay uses the indicator dye resazurin to measure the metabolic capacity of cells. Viable cells retain the ability to reduce resazurin into resorufin, which is highly fluorescent.
(§2) Stock solutions (10 or 100 mM in DMSO) of compounds were serially diluted 1:2 in 11 concentrations and 25 nL/well (100 mM stock) or 50 nL/well (10 mM stock) were acoustically dispensed in assay plates with an EDC acoustic dispenser. Final starting concentration in the assay was 20 μM (0.2% DMSO) or 100 μM (0.1% DMSO) for test compounds.
(§3) Peripheral blood mononuclear cells (PBMC) from CLL patients or healthy volunteers were seeded in assay plates (384-well black/clear, Greiner #781091) pre-dispensed with compounds, 25 μL/well, and cultured for 24, 48 and 72 h. The cell concentration was 50 000 cells/well for PBMC from CLL patients or healthy volunteers. After 24, 48 and 72 h culture, Celltiter Blue reagent was added (5 μL/well) and the plates were incubated for 2 h. The plates were read in an Envision fluorescence reader (PerkinElmer) with Ex544 nm/Em590 nm. Results were calculated as % cytotoxicity compared to background (cells treated with 0.2% DMSO).
(§4) Thus, IC50 values for cell toxicity in PBMC from CLL patients as well as healthy volunteers for some compounds of the invention are shown in Table 3 as measured by the CellTiter-Blue® Cell Viability Assay.

[1] = test system: PBMC from healthy volunteers; assay: CellTiter-Blue Cell Viability Assay, PBMC from healthy volunteers; type: cell-based; details: Homo sapiens, cell toxicity, culture 24, 48 and 72 h (time of the values not stated)
Method: as §1, §2, §3, §4

Compound	IC50 (PBMC from CLL patients) [nM]	IC50 [1] [nM]
CN1CC[C@H](Nc2c(Cl)cnc3[nH]c(-c4ccc(N5CCN(Cc6ccncc6)CC5)cc4)nc23)C1 [Example 126, 6-Chloro-N-[(3S)-1-methylpyrrolidin-3-yl]-2-{4-[4-(pyridin-4-ylmethyl)piperazin-1-yl]phenyl}-3H-imidazo[4,5-b]pyridin-7-amine]	130	> 20000
CCN1CCC(Nc2c(Br)cnc3[nH]c(-c4ccc(N5CCN(C(=O)COC)CC5)cc4)nc23)CC1 [Example 239, 6-Bromo-N-(1-ethylpiperidin-4-yl)-2-{4-[4-(methoxyacetyl)piperazin-1-yl]phenyl}-3H-imidazo[4,5-b]pyridin-7-amine]	100	> 20000
CN1CCC(Nc2c(Cl)cnc3[nH]c(-c4ccc(N5CCN(Cc6ccccn6)CC5)cc4)nc23)CC1 [Example 98, 6-Chloro-N-(1-methylpiperidin-4-yl)-2-{4-[4-(pyridin-2-ylmethyl)piperazin-1-yl]phenyl}-3H-imidazo[4,5-b]pyridin-7-amine]	60	> 20000
COCCCN1CCN(c2ccc(-c3nc4c(NC5CCN(C(C)C)CC5)c(Cl)cnc4[nH]3)cc2)CC1=O [Example 246, 4-[4-(6-Chloro-7-{[1-(1-methylethyl)piperidin-4-yl]amino}-3H-imidazo[4,5-b]pyridin-2-yl)phenyl]-1-(3-methoxypropyl)piperazin-2-one]	110	> 20000
COCCN1CCN(c2ccc(-c3nc4c(NC5CCN(CC6CC6)CC5)c(Cl)cnc4[nH]3)cc2)CC1=O [Example 355, 4-[4-(6-Chloro-7-{[1-(cyclopropylmethyl)piperidin-4-yl]amino}-3H-imidazo[4,5-b]pyridin-2-yl)phenyl]-1-(2-methoxyethyl)piperrazin-2-one]	110	> 20000
CCN1CCC(Nc2c(Br)cnc3[nH]c(-c4ccc(N5CCN(Cc6cccnc6)CC5)cc4)nc23)CC1 [Example 174, 6-Bromo-N-(1-ethylpiperidin-4-yl)-2-{4-[4-(pyridin-3-ylmethyl)piperazin-1-yl]phenyl}-3H-imidazo[4,5-b]pyridin-7-amine]	10	> 20000
CC(C)OCCN1CCN(c2ccc(-c3nc4c(NC5CCN(Cc6ccc(N(C)C)cc6)CC5)c(Cl)cnc4[nH]3)cc2)CC1 [Example 90, 6-Chloro-N-{1-[4-(dimethylamino)benzyl]piperidin-4-yl}-2-(4-{4-[2-(1-methylethoxy)ethyl]piperazin-1-yl}phenyl)-3H-imidazo[4,5-b]pyridin-7-amine]	870	> 20000
CN1CCC(Nc2c(Cl)cnc3[nH]c(-c4ccc(N5CCC(CCO)CC5)cc4)nc23)CC1 [Example 254, 2-[1-(4-{6-Chloro-7-[(1-methylpiperidin-4-yl)amino]-3H-imidazo[4,5-b]pyridin-2-yl}phenyl)piperidin-4-yl]ethanol]	50	16300
CN1CC[C@H](Nc2c(Br)cnc3[nH]c(-c4ccc(N5CCN(Cc6cncnc6)CC5)cc4)nc23)C1 [Example 157, 6-Bromo-N-[(3S)-1-methylpyrrolidin-3-yl]-2-{4-[4-(pyrimidin-5-ylmethyl)piperazin-1-yl]phenyl}-3H-imidazo[4,5-b]pyridin-7-amine]	290	> 20000
COCCN1CCN(c2ccc(-c3nc4c(NC5CCN(Cc6ccc(O)c(OC)c6)CC5)c(Cl)cnc4[nH]3)cc2)CC1 [Example 103, 4-({4-[(6-Chloro-2-{4-[4-(2-methoxyethyl)piperazin-1-yl]phenyl}-3H-imidazo[4,5-b]pyridin-7-yl)amino]piperidin-1-yl}methyl)-2-methoxyphenol]	350	> 20000
CCN1CCC(Nc2c(Br)cnc3[nH]c(-c4ccc(N5CCNC(=O)CC5)cc4)nc23)CC1 [Example 53, 1-(4-{6-Bromo-7-[(1-ethylpiperidin-4-yl)amino]-3H-imidazo[4,5-b]pyridin-2-yl}phenyl)-1,4-diazepan-5-one]	480	> 20000
CCN1CCC(Nc2c(Cl)cnc3[nH]c(-c4ccc(N5CCN(Cc6cncs6)CC5)cc4)nc23)CC1 [Example 320, 6-Chloro-N-(1-ethylpiperidin-4-yl)-2-{4-[4-(1,3-thiazol-5-ylmethyl)piperazin-1-yl]phenyl}-3H-imidazo[4,5-b]pyridin-7-amine]	100	> 20000
CC(C)N1CCC(Nc2c(Br)cnc3[nH]c(-c4ccc(N5CCN(CCC#N)CC5)cc4)nc23)CC1 [Example 337, 3-{4-[4-(6-Bromo-7-{[1-(1-methylethyl)piperidin-4-yl]amino}-3H-imidazo[4,5-b]pyridin-2-yl)phenyl]piperazin-1-yl}propanenitrile]	250	> 20000
CCOCCN1CCN(c2ccc(-c3nc4c(NC5CC(C)(C)N(C)C(C)(C)C5)c(Br)cnc4[nH]3)cc2)CC1=O [Example 342, 4-(4-{6-Bromo-7-[(1,2,2,6,6-pentamethylpiperidin-4-yl)amino]-3H-imidazo[4,5-b]pyridin-2-yl}phenyl)-1-(2-ethoxyethyl)piperazin-2-one]	40	> 20000
CCN1CCC(Nc2c(Br)cnc3[nH]c(-c4ccc(N5CCN(C(=O)C(C)(C)C)CC5)cc4)nc23)CC1 [Example 363, 6-Bromo-2-{4-[4-(2,2-dimethylpropanoyl)piperazin-1-yl]phenyl}-N-(1-ethylpiperidin-4-yl)-3H-imidazo[4,5-b]pyridin-7-amine]	140	3100
COCCN1CCN(c2ccc(-c3nc4c(NC5CCN(C)CC5)c(Cl)cnc4[nH]3)cc2OC)CC1 [Example 381, 6-Chloro-2-{3-methoxy-4-[4-(2-methoxyethyl)piperazin-1-yl]phenyl}-N-(1-methylpiperidin-4-yl)-3H-imidazo[4,5-b]pyridin-7-amine]	400	> 20000
CCN1CCC(Nc2c(Cl)cnc3[nH]c(-c4ccc(N5CCN(Cc6cccc(C)n6)CC5)cc4)nc23)CC1 [Example 142, 6-Chloro-N-(1-ethylpiperidin-4-yl)-2-(4-{4-[(6-methylpyridin-2-yl)methyl]piperazin-1-yl}phenyl)-3H-imidazo[4,5-b]pyridin-7-amine]	240	14800
Clc1cnc2[nH]c(-c3ccc(N4CCOCC4)cc3)nc2c1NC1CCN(Cc2cccs2)CC1 [Example 83, 6-Chloro-2-(4-morpholin-4-ylphenyl)-N-[1-(thiophen-2-ylmethyl)piperidin-4-yl]-3H-imidazo[4,5-b]pyridin-7-amine]	1000	> 20000
COCCN1CCCN(c2ccc(-c3nc4c(NC5CCN(C(C)C)CC5)c(Cl)cnc4[nH]3)cc2)CC1 [Example 63, 6-Chloro-2-{4-[4-(2-methoxyethyl)-1,4-diazepan-1-yl]phenyl}-N-[1-(1-methylethyl)piperidin-4-yl]-3H-imidazo[4,5-b]pyridin-7-amine]	960	> 20000
CC(C)N1CCC(Nc2c(Cl)cnc3[nH]c(-c4ccc(N5CCN(CCNc6ccnn6C)CC5)cc4)nc23)CC1 [Example 326, 6-Chloro-N-[1-(1-methylethyl)piperidin-4-yl]-2-[4-(4-{2-[(1-methyl-1H-pyrazol-5-yl)amino]ethyl}piperazin-1-yl)phenyl]-3H-imidazo[4,5-b]pyridin-7-amine]	260	> 20000
COc1ccc(CN2CCC(Nc3c(Cl)cnc4[nH]c(-c5ccc(N6CCN(C(C)=O)CC6)cc5)nc34)CC2)cc1 [Example 35, 2-[4-(4-Acetylpiperazin-1-yl)phenyl]-6-chloro-N-[1-(4-methoxybenzyl)piperidin-4-yl]-3H-imidazo[4,5-b]pyridin-7-amine]	430	> 20000
COCCN1CCN(c2ccc(-c3nc4c(NC5CCN(C)CC5)c(Cl)cnc4[nH]3)cc2F)CC1 [Example 372, 6-Chloro-2-{3-fluoro-4-[4-(2-methoxyethyl)piperazin-1-yl]phenyl}-N-(1-methylpiperidin-4-yl)-3H-imidazo[4,5-b]pyridin-7-amine]	310	> 20000
CN1CCC(Nc2c(Cl)cnc3[nH]c(-c4ccc(N5CCCN(C)CC5)cc4)nc23)CC1 [Example 22, 6-Chloro-2-[4-(4-methyl-1,4-diazepan-1-yl)phenyl]-N-(1-methylpiperidin-4-yl)-3H-imidazo[4,5-b]pyridin-7-amine]	170	18600
CN1CCC(Nc2c(Br)cnc3[nH]c(-c4ccc(N5CCN(CCCO)CC5)cc4)nc23)CC1 [Example 268, 3-[4-(4-{6-Bromo-7-[(1-methylpiperidin-4-yl)amino]-3H-imidazo[4,5-b]pyridin-2-yl}phenyl)piperazin-1-yl]propan-1-ol]	10	> 20000
COCCN1CCN(c2ccc(-c3nc4c(NC5CCN(Cc6ccc(OC)cc6)CC5)c(Cl)cnc4[nH]3)cc2)CC1 [Example 14, 6-Chloro-N-[1-(4-methoxybenzyl)piperidin-4-yl]-2-{4-[4-(2-methoxyethyl)piperazin-1-yl]phenyl}-3H-imidazo[4,5-b]pyridin-7-amine]	420	15600
